Laboratory results as given in PMC6389928, “Biomolecular Interaction, Anti-Cancer and Anti-Angiogenic Properties of Cobalt(III) Schiff Base Complexes” (Scientific Reports, 2019).
Like-named read-outs stand apart in the source and are kept apart here.

What was measured:
DNA [1] = conditions: cited from earlier work
A549 lung carcinoma cell = assay: MTT assay on A549 cells; conditions: A549 lung cancer cells, tested separately
Excerpt: The anti-proliferative property of the complexes 1 and 2 at different concentrations on A549 lung carcinoma cell and monkey kidney epithelial cell Vero was examined by adopting MTT assay (Fig. S7). […] The naked cobalt acetate and ligands salen and salophen were separately tested on A549 cells to understand if metal chelation is the principal basis of the anticancer activity of the complexes.
Culture: Human lung cancer cells (A549) were received from National Centre for Cell Science (NCCS) Pune, India. Vero cells were obtained from ATCC. The cells were grown at humidified atmosphere of 5% CO2 in an incubator at 37 °C (Forma, Thermo Scientific, USA) in DMEM medium (Invitrogen) containing 10% FBS (Sigma-Aldrich, St. Louis, Mo, USA), 100 μg/mL of penicillin and 100 μg/mL streptomycin were used as antibiotics (Himedia, Mumbai, India). […] The cells were seeded in 96 well plates (5000 A549 cells per well) and allowed to attach for 24 h. The cells were then incubated with different concentrations of the metal complexes 1 and 2 dissolved in 100% dimethyl sulfoxide (DMSO) (Sigma-Aldrich) and prepared to a final dilution of 0.02% of DMSO.
In the determination of IC50 value, 0.02% DMSO was used as the solvent control. After the end of incubation period (24 h), the medium was aspirated carefully and replaced with new medium. The formazan formed was dissolved in100 μL of 100% DMSO to each well. The absorbance was monitored at 570 nm using a 96 well plate reader (Bio-Rad, Hercules, California, USA). All experiments were repeated for a minimum of three times when each experiment was done in two replicates.

DNA [2] = assay: Viscosity measurement of DNA; type: binding; conditions: 30.0 ± 0.2 °C, increasing amounts of compound
Excerpt: The mode of interaction between DNA and complexes has been further confirmed using viscosity measurements. The intercalation between DNA and metal complex causes lengthening of the DNA helix and increases DNA’s relative viscosity. Ethidium bromide (EB) is a well known DNA intercalator which was used as a standard to make sure our viscosity determination was working properly. […] The increase in relative viscosity follows the DNA-intercalating ability and the order of relative viscosity is EB > 2 > 1.
CD spectra of CT–DNA in the absence and presence of cobalt(III) complexes 1 and 2 were recorded in phosphate buffer. Each sample solution was scanned in the range of 200–320 nm, and final CD spectra were generated after averaging three scans subtracting the buffer background. Viscosity experiments were performed using an Ubbelohde viscometer at a constant temperature (30.0 ± 0.2 °C).

Row | Molecule | Kb (DNA [1]) [M⁻¹] | concentration up to which not cytotoxic (A549 lung carcinoma cell) [µM] | also measured
1 | CCCCCCCCCCCCN.NCCNCCN.[Cl-].[Cl-].[Co+3].[O-][Cl+3]([O-])([O-])[O-] [[Co(dien)(DA)Cl2](ClO4)] | 3110.8 |  | 
2 | CCCCCCCCCCCCN.CCCCCCCCCCCCN.NCCNCCN.[Cl-].[Co+3].[O-][Cl+3]([O-])([O-])[O-].[O-][Cl+3]([O-])([O-])[O-] [[Co(dien)(DA)2Cl](ClO4)2] | 14318 |  | 
3 | [Co(dien)(CA)Cl2](ClO4) | 9005.2 |  | 
4 | CC(=O)[O-].CC(=O)[O-].O.O.O.O.[Co+2] [cobalt acetate, Cobalt(II) acetate tetrahydrate] |  | > 200 | 
5 | Oc1ccccc1C=Nc1ccccc1N=Cc1ccccc1O [salophen, N,N’-bis(salicylidene)-1,2-phenylenediamine] |  | > 200 | 
6 | Oc1ccccc1C=NCCN=Cc1ccccc1O [salen, N,N’-bis(salicylidene)ethylenediamine] |  | > 200 | 
7 | CCCCCCCCCCCCCCN.NCCN.NCCN.[Cl-].[Co+3].[O-][Cl+3]([O-])([O-])[O-].[O-][Cl+3]([O-])([O-])[O-] [cis-[Co(en)2(C14H29NH2)Cl](ClO4)2] | 25900 |  | 
8 | CCCCCCCCCCCN.[Cl-].[Co+3].[O-][Cl+3]([O-])([O-])[O-].[O-][Cl+3]([O-])([O-])[O-].c1ccc(-c2ccccn2)nc1.c1ccc(-c2ccccn2)nc1 [cis-[Co(bpy)2(C11H23NH2)Cl](ClO4)2] | 22100 |  | 
9 | CCCCCCCCCCCCCCN.[Cl-].[Co+3].[O-][Cl+3]([O-])([O-])[O-].[O-][Cl+3]([O-])([O-])[O-].c1ccc(-c2ccccn2)nc1.c1ccc(-c2ccccn2)nc1 [cis-[Co(bpy)2(C14H29NH2)Cl](ClO4)2] | 28600 |  | 
10 | CC[n+]1c(-c2ccccc2)c2cc(N)ccc2c2ccc(N)cc21 [EB, ethidium bromide, reference compound] |  |  | effect on relative viscosity of DNA (DNA [2]): significant increase in the viscosity of the DNA solutions; Kb (DNA [1]; typical classical intercalator): 494000 M⁻¹
